Calls of active or inactive are those of the source.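 Rule for the calls: active = maximal inhibition of the USP30 enzyme reaching 30% or more across the dose series; inactive = the rest.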
These compounds were tested against Ubiquitin carboxyl-terminal hydrolase 30 (Homo sapiens) (UniProt Q70CQ3) (assay: inhibitors of ubiquitin-specific protease 30 deubiquitylating enzyme, concentration dependence, in vitro biochemical, validation of primary hits (AID 1645865)). Conditions: purified USP30, Ub-rhodamine cleavage, fluorescence, 2 h.
Sequence of Ubiquitin carboxyl-terminal hydrolase 30 (Homo sapiens) (Q70CQ3 whole entry, looked up): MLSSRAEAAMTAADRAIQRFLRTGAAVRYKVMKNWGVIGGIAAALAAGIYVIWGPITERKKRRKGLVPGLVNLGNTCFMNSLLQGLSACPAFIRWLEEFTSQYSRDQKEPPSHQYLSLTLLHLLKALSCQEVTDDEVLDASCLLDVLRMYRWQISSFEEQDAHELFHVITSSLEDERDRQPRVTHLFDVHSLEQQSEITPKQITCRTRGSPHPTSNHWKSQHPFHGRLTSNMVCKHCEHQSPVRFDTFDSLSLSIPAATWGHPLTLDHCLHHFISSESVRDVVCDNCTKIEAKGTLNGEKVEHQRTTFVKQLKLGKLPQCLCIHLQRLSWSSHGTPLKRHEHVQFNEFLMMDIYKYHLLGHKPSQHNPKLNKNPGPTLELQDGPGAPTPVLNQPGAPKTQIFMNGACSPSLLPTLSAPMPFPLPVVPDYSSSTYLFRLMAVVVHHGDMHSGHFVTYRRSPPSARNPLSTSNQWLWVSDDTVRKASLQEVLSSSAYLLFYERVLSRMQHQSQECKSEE

Row | SMILES | IC50
1 | O=C(CN1C=NC2=NS(=O)(=O)c3ccccc3N21)Nc1cc(F)ccc1F | 36.6 µM
2 | CC(=O)c1ccc(Cc2ncc(C(F)(F)F)cc2Cl)s1 | > 50 µM (inactive)
3 | O=C(COC(=O)c1cc2c(s1)CCC2)c1ccc2[nH]c(=O)[nH]c2c1 | > 50 µM (inactive)
4 | Cc1ccc(Cn2nnc(-c3ccccc3Cl)n2)cc1 | > 50 µM (inactive)
5 | NC(=O)C1(N2CCCCC2)CCN(C(=O)c2[nH]nc3c2CCc2ccccc2-3)CC1 | > 50 µM (inactive)
6 | O=C(NCc1ccc(F)cc1)c1cc(-n2cnnn2)ccc1Cl | 21.3 µM
7 | Cc1cc(O)c(=O)cc2c1C[C@H]1CC(C)(C)/C=C/C[C@@]3(C)Oc4cc(=O)c(O)cc(C)c4C[C@@H]3C[C@H](O)[C@]1(C)O2 | > 50 µM (inactive)
8 | COc1cccc(CNC(=O)c2ccc3c(c2)NC(=O)C2CCCN32)c1OC (stereo not drawn) | > 50 µM (inactive)
9 | COc1cc(N)c(Cl)cc1C(=O)OCC(=O)c1ccc2c(c1)OCCO2 | > 50 µM (inactive)
10 | CCCc1c(C(=O)O)c(O[C@H]2O[C@H](C)[C@@H](OC)[C@H](OC)[C@@H]2OC)cc2cc3c(c(O)c12)C(=O)c1c(O)cc(O[C@@H]2O[C@@H](C)[C@H](O[C@H]4O[C@H](C)[C@@H](OC)[C@H](OC)[C@@H]4O)[C@@H](OC)[C@H]2O)cc1C3=O | > 50 µM (inactive)
11 | CC(C)N(C(=O)Cn1c(=O)[nH]c2ccccc21)c1ccccc1 | > 50 µM (inactive)
12 | O=C1Nc2ccccc2C(=O)C1C(c1ccc(Cl)cc1)C1C(=O)Nc2ccccc2C1=O (stereo not drawn) | > 50 µM (inactive)
13 | Cc1ccc(C)c(CSC2=NCCN2C(=O)c2ccco2)c1 | > 50 µM (inactive)
14 | CC(OC(=O)c1ccc2c(c1)OCCO2)C(=O)NCC1CCCCC1 (stereo not drawn) | 31.3 µM
15 | Cc1cc(C(=O)COC(=O)c2ccc[nH]c2=O)c(C)n1-c1ccc2c(c1)OCO2 | > 50 µM (inactive)
16 | Cc1nnc(-c2nnc(NCc3ccc(Cl)cc3)c3ccccc23)o1 | > 50 µM (inactive)
17 | Cc1nc(CN2CCn3c(Cn4cccn4)cnc3C2C)cs1 (stereo not drawn) | > 50 µM (inactive)
18 | Clc1ccccc1CSc1nnc(C2CCCCC2)n1Cc1ccccc1 | 21.5 µM
19 | O=C(NCc1ccc(Cl)cc1)c1ccc(N2CCCS2(=O)=O)cc1 | > 5 µM (inactive)
20 | O=[N+]([O-])c1cccc(CSc2nnc(/C=C/c3ccccc3)o2)c1 | > 50 µM (inactive)

Row | SMILES | IC50
21 | c1ccc(CCN2CCc3nc4cccnc4cc3C2)nc1 | > 50 µM (inactive)
22 | N#Cc1ccc(NC(=O)c2ccc(S(=O)(=O)N3CCCCC3)cc2)cc1 | 8.97 µM
23 | O=C(NC1CCN(Cc2ccccc2)CC1)c1[nH]nc2c1COc1ccccc1-2 | > 50 µM (inactive)
24 | O=C(CSc1nc2cc(C(F)(F)F)ccc2s1)NCC(=O)c1ccccc1 | 1.82 µM
25 | COc1cccc2c1C(=O)c1ccc3c(c1C2=O)C(=O)CC(C)(O)C3 (stereo not drawn) | > 50 µM (inactive)
26 | CN1C(=O)[C@@]23C[C@]4([C@@]56C[C@]78SS[C@](CO)(C(=O)N7[C@@H]5Nc5ccccc56)N(C)C8=O)c5ccccc5N[C@@H]4N2C(=O)[C@]1(CO)SS3 | 0.266 µM
27 | CC(=O)c1cc2c(=O)c3c(C(=O)O)c(O)c(O)cc3oc2c(C(C)=O)c1-c1coc2cc(O)c(O)c(C(=O)O)c2c1=O | 4.57 µM
28 | O=C(CCSc1ccc(Cl)cc1)c1cccs1 | 20.2 µM
29 | N#C/C(=C/c1sc(N2CCOCC2)nc1-c1ccccc1)c1ccccn1 | > 50 µM (inactive)
30 | O=c1c2ccccc2ncn1C1CCN(S(=O)(=O)c2ccccc2F)CC1 | 30.8 µM
31 | COc1ccc(-c2cc(C(=O)NC3CCCCCC3)[nH]n2)cc1S(=O)(=O)N(C)C | 22.9 µM
32 | CS(=O)(=O)NC1CCCN(C(=O)Nc2cccc3ccccc23)C1 (stereo not drawn) | > 50 µM (inactive)
33 | Nc1ccc(NC(=O)c2cc3c(s2)CCC3)cc1[N+](=O)[O-] | 16.5 µM
34 | COC1=CC(=O)c2c(O)c3c(c(C)c2C1=O)C[C@@]1(O)[C@H](O[C@H]2CC[C@H](O[C@H]4C[C@@](C)(O)[C@H](OC(=O)c5c(C)ccc(C)c5O)[C@H](C)O4)[C@@H](C)O2)C(=O)C(C(C)=O)=C(O)[C@@]1(O)C3=O | 4.74 µM
35 | O=C1N[C@@H](Cc2ccccc2)C(=O)N2[C@H]3Nc4ccccc4[C@@]3([C@]34C[C@H]5C(=O)N[C@@H](Cc6ccccc6)C(=O)N5[C@H]3Nc3ccccc34)C[C@@H]12 | 40.3 µM
36 | Cc1sc2ccn(C)c(=O)c2c1C(=O)NC1CCCC1 | 25.9 µM
37 | COc1cc(NC(=O)c2cc(CN3CCOCC3)on2)cc(OC)c1 | > 50 µM (inactive)
38 | COc1c(C)c(C(O)C(C)O)c2[nH]c3ccc(CC=C(C)C)cc3c2c1O (stereo not drawn) | 27.4 µM
39 | O=C(Nc1nc2c(s1)COCC2)c1cc(-c2ccco2)[nH]n1 | > 50 µM (inactive)
40 | Cc1cc(C(=O)N2CCN(C3CCN(Cc4ccc(Cl)o4)CC3)C(=O)C2)c(C)o1 | > 50 µM (inactive)

Now from value to compound:

Row | IC50 | SMILES
41 | 26.8 µM | O=C1CC(C(=O)Nc2ccc(F)cc2)n2nc(SCc3ccccc3)nc2N1 (stereo not drawn)
42 | 4.77 µM | COc1ccc(OCC(=O)Nc2ccc(C)c(OCc3cc(=O)n4ccccc4n3)c2)cc1
43 | > 50 µM (inactive) | O=C(OCc1ccc(F)cc1)c1ccc2ccccc2n1
44 | 3.22 µM | Cc1nn(-c2cccc(F)c2)c2c1c(C)c(CCC(=O)NCc1ccccn1)c(=O)n2C
45 | 14.6 µM | COc1ccc(CNC(=O)CN2C(=O)CC(c3ccccc3)=Nc3ccccc32)cc1
46 | 8.18 µM | COc1ccc(NC(=O)C2CC(=O)Nc3c(-c4ccc(Cl)cc4)cnn32)c(OC)c1 (stereo not drawn)
47 | > 50 µM (inactive) | O=C(COc1nc2ccccc2nc1N1CCOCC1)Nc1cccc(S(=O)(=O)N2CCCCC2)c1
48 | 0.179 µM | Cc1cccc(-c2nc3n(CC(=O)Nc4ccc(Cl)cc4)c(C)cc(=O)n3n2)c1
49 | 2.13 µM | COc1cc(-c2nc(C(N)=O)c3[nH]c(=O)n(-c4ccc(C)cc4)c3n2)cc(OC)c1OC
50 | 2.25 µM | Cc1ccc(-n2c(=O)c3ccccc3n(Cc3c(F)cccc3Cl)c2=O)cc1
51 | 2.17 µM | CCOC(=O)c1cnn(-c2ccc(C(=O)Nc3ccc(C)c(Cl)c3)cc2)c1N
52 | > 50 µM (inactive) | COc1cccc(-n2c(=O)[nH]c3c(C(N)=O)nc(-c4ccc(OCc5ccccc5)cc4)nc32)c1
53 | 39.6 µM | Cc1ccc(C(=O)NCC(=O)Nc2nc3ccccc3[nH]2)c(C)c1
54 | 6.5 µM | CCN(CCCNC(=O)c1ccc(Cn2c(=O)[nH]c3ccccc3c2=O)cc1)c1ccccc1
55 | > 50 µM (inactive) | Cc1cccc(NC(=O)Cn2c(-c3cnccn3)nc(C)c(C)c2=O)c1C
56 | > 50 µM (inactive) | O=C(Cn1nnc(-c2ccc(F)cc2)n1)NCCc1ccccc1
57 | 28.9 µM | COc1ccccc1NC(=O)c1cc2c(C)nn(Cc3ccccc3)c2s1
58 | 25.6 µM | COc1ccc(/C=C/C(=O)Nc2cccc(S(=O)(=O)Nc3ccccc3Cl)c2)c(OC)c1
59 | 17.5 µM | Cc1cc(C)c2sc(N(CCCn3ccnc3)C(=O)Cc3ccccc3)nc2c1
60 | 4.45 µM | Cc1ccc(C(=O)c2cn(CC(=O)Nc3ccccc3)c3ccc(C)cc3c2=O)cc1
61 | > 50 µM (inactive) | COc1ccccc1-c1nc2c3c(C)c(C)n(Cc4cccnc4)c3ncn2n1
62 | 32.6 µM | COc1cccc(NC(=O)c2ccc3noc(-c4ccc(Cl)cc4)c3c2)c1
63 | > 50 µM (inactive) | O=C(NCCc1ccccc1)c1nnn(Cc2cccc(Cl)c2)c1-n1cccc1
64 | > 50 µM (inactive) | O=C(Nc1ccc2c(c1)OCO2)C1CCN(Cc2nc3ccccc3s2)CC1
65 | 2.13 µM | CCc1cc2cc3c(cc2nc1SCC(=O)Nc1cccc(C(C)=O)c1)OCO3
66 | 0.164 µM | COc1ccc(Cl)cc1NC(=O)c1cc(-c2ccccn2)n[nH]1
67 | > 50 µM (inactive) | CC(C)(C)C(=O)[C@@H]1[C@@H](C(=O)c2ccc3c(c2)OCO3)[C@@]2(C(=O)Nc3ccccc32)[C@H]2c3ccccc3C=CN12

Row | IC50 | SMILES
68 | > 50 µM (inactive) | COc1cccc(-n2nnc(C(=O)Nc3ccc(C)c(C)c3)c2C)c1
69 | 38 µM | O=C(COc1ccc(F)cc1)Nc1cnc(-c2ccc(Cl)cc2)nc1
70 | 1.29 µM | CCOc1ccc2cc3c(nc2c1)OC(=O)N(Cc1ccc(C)o1)C3
71 | 11.2 µM | Cc1cc(=O)n(CC(=O)Nc2ccccc2C)c(Nc2ccc(F)cc2)n1
72 | 45.3 µM | Cc1nc(-c2cccc(NC(=O)C3CCN(c4ccccc4)C3=O)c2)no1 (stereo not drawn)
73 | 3.99 µM | CC(=O)Nc1ccc(O)c(-c2nc3cc(C)ccc3o2)c1
74 | 31.2 µM | Nc1c(C(=O)NCCc2ccccc2)nnn1-c1ccc(F)cc1
75 | > 50 µM (inactive) | CCCOc1ccc(C(=O)Nc2ccc(S(=O)(=O)Nc3cc(C)nc(C)n3)cc2)cc1
76 | 20.1 µM | O=C1CC(C(=O)Nc2ccccc2Cl)n2nc(-c3ccccc3)cc2N1 (stereo not drawn)
77 | 28.5 µM | COc1ccc2[nH]c3c(c2c1)CCN1C(=O)N(c2ccccc2C(=O)NCc2ccccc2)C(=O)[C@]31C
78 | 1.44 µM | CCOc1ccc(NC(=O)Cn2c(=O)n(CCCCCC(=O)NCc3ccc(F)cc3)c(=O)c3sccc32)cc1
79 | > 50 µM (inactive) | N#Cc1ccc(NC(=O)Nc2cccn(Cc3ccccc3Br)c2=O)cc1
80 | > 50 µM (inactive) | COc1ccc(NC(=O)CN2C(=O)c3ccccc3Sc3ccc(C(=O)N4CCCC4)cc32)c(OC)c1
81 | 3.81 µM | CCOc1ccc(-c2ccc3nnc(SCC(=O)Nc4cccc(C(C)=O)c4)n3n2)cc1
82 | 3.32 µM | Cc1ccccc1-c1nnc(-c2ccc(C(=O)NCc3ccccc3F)cc2)o1
83 | 26.6 µM | CCc1ccc(NC(=O)COc2cccc(-n3cnnn3)c2)cc1
84 | 38.5 µM | CCOC(=O)c1ccc(NC(=O)C[n+]2cc(-c3ccc(Cl)cc3)n3c2CCC3)cc1
85 | > 50 µM (inactive) | COc1ccccc1/C=C/C(=O)Nc1nc2n(n1)C(c1ccc(Cl)cc1)CC(=O)N2 (stereo not drawn)
86 | 43.1 µM | COc1ccc(C2/C(=C(\O)c3ccccc3)C(=O)C(=O)N2c2nc3ccc(F)cc3s2)cc1 (stereo not drawn)
87 | 2.05 µM | COc1cccc(NC(=O)c2cnc3c(c2)c(=O)n(C)c(=O)n3C)c1
88 | 35.3 µM | Cc1ccc(OCCn2c(=N)n(C(C)C)c3ccccc32)cc1
89 | > 50 µM (inactive) | CCOC(=O)c1ccc(-n2c(=O)c(C#N)cc3c(=O)n4ccccc4nc32)cc1
90 | > 50 µM (inactive) | COc1ccc(NC(=O)c2nnn(-c3ccccc3F)c2C)cc1OC
91 | > 50 µM (inactive) | Cc1ccccc1Cn1cc(SCC(=O)Nc2ccc3c(c2)OCCO3)c2ccccc21
92 | > 50 µM (inactive) | N#Cc1ccc(NC(=O)COC(=O)c2ccc3ccccc3n2)cc1
93 | 14.8 µM | Cc1ccc(CN2C(=O)c3cc4ccccc4n3CC2(C)C(=O)NCc2ccccc2)o1 (stereo not drawn)
